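48-hour exposure; five concentrations; linearly interpolated endpoints. GI50: concentration for 50% inhibition of growth. TGI is the concentration that stops growth completely.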
Experiments:
Assay in all cases: inhibition of tumour cell growth, NCI panel, 48 h
786-0 renal = system: 786-0 renal
A498 renal = system: A498 renal
A549 NSCLC = system: A549 NSCLC
ACHN renal = system: ACHN renal
BT-549 breast = system: BT-549 breast
CAKI-1 renal = system: CAKI-1 renal
CCRF-CEM leukemia = system: CCRF-CEM leukemia
COLO 205 colon = system: COLO 205 colon
DU-145 prostate = system: DU-145 prostate
EKVX NSCLC = system: EKVX NSCLC
HCC-2998 colon = system: HCC-2998 colon
HCT-116 colon = system: HCT-116 colon
HCT-15 colon = system: HCT-15 colon
HL-60(TB) leukemia = system: HL-60(TB) leukemia
HOP-62 NSCLC = system: HOP-62 NSCLC
HOP-92 NSCLC = system: HOP-92 NSCLC
HS 578T breast = system: HS 578T breast
HT29 colon = system: HT29 colon
IGROV1 ovarian = system: IGROV1 ovarian
K-562 leukemia = system: K-562 leukemia
KM12 colon = system: KM12 colon
LOX IMVI melanoma = system: LOX IMVI melanoma
M14 melanoma = system: M14 melanoma
MALME-3M melanoma = system: MALME-3M melanoma
MCF7 breast = system: MCF7 breast
MDA-MB-231 breast = system: MDA-MB-231 breast
MDA-MB-435 = system: MDA-MB-435
MOLT-4 leukemia = system: MOLT-4 leukemia
NCI-H226 lung = system: NCI-H226 lung

Question: With `C=C1C(=O)O[C@H]2[C@H]1CC/C(COC(=O)/C=C\C(=O)NCc1ccc(Cn3c(=O)sn(-c4ccc(Cl)cc4)c3=O)cc1)=C\CC[C@@]1(C)O[C@@H]21` as the compound, how does the GI50 (786-0 renal) read?
Answer: 658 nM

Question: And the TGI (786-0 renal)?
Answer: 1390 nM

Question: What about the GI50 (A498 renal) of the same compound?
Answer: 741 nM

Question: And the TGI (A498 renal)?
Answer: 1430 nM

Question: What about the GI50 (A549 NSCLC) of the same compound?
Answer: 871 nM

Question: And the TGI (A549 NSCLC)?
Answer: 2350 nM

Question: What about the GI50 (ACHN renal) of the same compound?
Answer: 404 nM

Question: And the TGI (ACHN renal)?
Answer: 1030 nM

Question: What about the GI50 (BT-549 breast) of the same compound?
Answer: 591 nM

Question: And the TGI (BT-549 breast)?
Answer: 1510 nM

Question: And the GI50 (CAKI-1 renal)?
Answer: 328 nM

Question: What about the TGI (CAKI-1 renal) of the same compound?
Answer: 1030 nM

Question: What about the GI50 (CCRF-CEM leukemia) of the same compound?
Answer: 173 nM

Question: What about the TGI (CCRF-CEM leukemia) of the same compound?
Answer: 6650 nM

Question: What about the GI50 (COLO 205 colon) of the same compound?
Answer: 564 nM

Question: And the TGI (COLO 205 colon)?
Answer: 1590 nM

Question: What about the GI50 (DU-145 prostate) of the same compound?
Answer: 638 nM

Question: And the TGI (DU-145 prostate)?
Answer: 1300 nM

Question: What about the GI50 (EKVX NSCLC) of the same compound?
Answer: 809 nM

Question: And the TGI (EKVX NSCLC)?
Answer: 1580 nM

Question: What about the GI50 (HCC-2998 colon) of the same compound?
Answer: 896 nM

Question: What about the TGI (HCC-2998 colon) of the same compound?
Answer: 1700 nM

Question: What about the GI50 (HCT-116 colon) of the same compound?
Answer: 144 nM

Question: And the TGI (HCT-116 colon)?
Answer: 708 nM

Question: What about the GI50 (HCT-15 colon) of the same compound?
Answer: 331 nM

Question: What about the TGI (HCT-15 colon) of the same compound?
Answer: 1470 nM

Question: And the GI50 (HL-60(TB) leukemia)?
Answer: 696 nM

Question: And the TGI (HL-60(TB) leukemia)?
Answer: 2520 nM

Question: What about the GI50 (HOP-62 NSCLC) of the same compound?
Answer: 2120 nM

Question: What about the TGI (HOP-62 NSCLC) of the same compound?
Answer: 7630 nM

Question: What about the GI50 (HOP-92 NSCLC) of the same compound?
Answer: 569 nM

Question: And the TGI (HOP-92 NSCLC)?
Answer: 1350 nM

Question: What about the GI50 (HS 578T breast) of the same compound?
Answer: 954 nM

Question: And the TGI (HS 578T breast)?
Answer: 2640 nM

Question: And the GI50 (HT29 colon)?
Answer: 369 nM

Question: What about the TGI (HT29 colon) of the same compound?
Answer: 1520 nM

Question: What about the GI50 (IGROV1 ovarian) of the same compound?
Answer: 638 nM

Question: And the TGI (IGROV1 ovarian)?
Answer: 1360 nM

Question: And the GI50 (K-562 leukemia)?
Answer: 409 nM

Question: What about the TGI (K-562 leukemia) of the same compound?
Answer: 50000 nM

Question: And the GI50 (KM12 colon)?
Answer: 891 nM

Question: What about the TGI (KM12 colon) of the same compound?
Answer: 1820 nM

Question: And the GI50 (LOX IMVI melanoma)?
Answer: 193 nM

Question: And the TGI (LOX IMVI melanoma)?
Answer: 789 nM

Question: What about the GI50 (M14 melanoma) of the same compound?
Answer: 639 nM

Question: What about the TGI (M14 melanoma) of the same compound?
Answer: 1480 nM

Question: And the GI50 (MALME-3M melanoma)?
Answer: 852 nM

Question: And the TGI (MALME-3M melanoma)?
Answer: 1630 nM

Question: What about the GI50 (MCF7 breast) of the same compound?
Answer: 360 nM

Question: What about the TGI (MCF7 breast) of the same compound?
Answer: 1410 nM

Question: And the GI50 (MDA-MB-231 breast)?
Answer: 758 nM

Question: What about the TGI (MDA-MB-231 breast) of the same compound?
Answer: 1760 nM

Question: And the GI50 (MDA-MB-435)?
Answer: 647 nM

Question: And the TGI (MDA-MB-435)?
Answer: 1330 nM

Question: And the GI50 (MOLT-4 leukemia)?
Answer: 499 nM

Question: And the TGI (MOLT-4 leukemia)?
Answer: 3270 nM

Question: And the GI50 (NCI-H226 lung)?
Answer: 1240 nM

Question: And the TGI (NCI-H226 lung)?
Answer: 4280 nM
